Our source for the MIC and ED50 values is patent US4130644A, “7-Acylamine-3-(sulfoalkyl substituted oxadiazolylthiomethyl) cephalosporins and pharmaceutical compositions containing them” (SmithKline Corporation, priority 1977, dated 1978).

The structures appear in SMILES notation. Values after ≈ are worked out from the molar mass of the structure shown.

One assay has as its system E. coli HH 33779. The assay is described as follows: in vitro minimum inhibitory concentration (MIC). The assay is classed as cell-based. Particulars: Escherichia coli, HH33779; E. coli HH 33779, in vitro. How it is done:
(§1) The compounds of Formula I have exceptional antibacterial activity against both Gram-positive and Gram-negative organisms. Minimum inhibitory concentrations (MIC's) range from 0.2 to <200 μg./ml. in in vitro testing. Test results for the compound 7-D-mandelamido-3-(5-sulfomethyl-1,3,4-oxadiazol-2-ylthiomethyl)-3-cephem- 4-carboxylic acid are given below: […]

Another assay relates to E. coli SK 12140. The assay is described as follows: in vitro minimum inhibitory concentration (MIC). The assay is classed as cell-based. Particulars: Escherichia coli, SK12140; E. coli SK 12140, in vitro. The method, then: as §1
A further assay relates to Entero aerog. ATCC 13048. The assay is described as follows: in vitro minimum inhibitory concentration (MIC). The assay is classed as cell-based. Particulars: Entero aerog. ATCC 13048, in vitro. The method, then: as §1
Another assay relates to Entero. cloacae HH 31254. The assay is described as follows: in vitro minimum inhibitory concentration (MIC). The assay is classed as cell-based. Particulars: Enterobacter cloacae, HH31254; Entero. cloacae HH 31254, in vitro. The method, then: as §1
The subject of another assay is Kleb. pneumo. SK 1200. As to the kind of experiment: in vitro minimum inhibitory concentration (MIC). The assay is classed as cell-based. Particulars: Kleb. pneumo. SK 1200, in vitro. The method, then:
as §1

In the next assay the test system is Kleb. pneumo. SK 4200. The assay is described as follows: in vitro minimum inhibitory concentration (MIC). The assay is classed as cell-based. Particulars: Kleb. pneumo. SK 4200, in vitro. The method, then: as §1
A further assay deals with Proteus morgani 179. As to the kind of experiment: in vitro minimum inhibitory concentration (MIC). The assay is classed as cell-based. Particulars: Proteus morgani 179, in vitro. How it is done:
as §1

In a further assay the test system is Pseudo. aerug. HH 63. As to the kind of experiment: in vitro minimum inhibitory concentration (MIC). The assay is classed as cell-based. Particulars: Pseudo. aerug. HH 63, in vitro. The method, then:
as §1

The subject of another assay is S. aureus HH 127. As to the kind of experiment: in vitro minimum inhibitory concentration (MIC). The assay is classed as cell-based. Particulars: Staphylococcus aureus, HH127; S. aureus HH 127, in vitro. The method, then:
as §1

A further assay has as its system S. aureus SK 23390. As to the kind of experiment: in vitro minimum inhibitory concentration (MIC). Particulars: Staphylococcus aureus, SK23390; S. aureus SK 23390, in vitro. The assay is classed as cell-based. How it is done: as §1
For the next assay, the system named is S. villaluz SK 70390. As to the kind of experiment: in vitro minimum inhibitory concentration (MIC). The assay is classed as cell-based. Particulars: S. villaluz SK 70390, in vitro. How it is done:
as §1

The next assay relates to Salmonella ATCC 12176. The assay is described as follows: in vitro minimum inhibitory concentration (MIC). The assay is classed as cell-based. Particulars: ATCC12176; Salmonella ATCC 12176, in vitro. How it is done:
as §1

The test system of another assay is Serrata marc. ATCC 13880. As to the kind of experiment: in vitro minimum inhibitory concentration (MIC). The assay is classed as cell-based. Particulars: Serrata marc. ATCC 13880, in vitro. The method, then: as §1
A further assay has as its system Shigella HH 117. As to the kind of experiment: in vitro minimum inhibitory concentration (MIC). The assay is classed as cell-based. Particulars: HH117; Shigella HH 117, in vitro. The method, then:
as §1

A further assay relates to Strep. faecalis HH 34358. The assay is described as follows: in vitro minimum inhibitory concentration (MIC). The assay is classed as cell-based. Particulars: Enterococcus faecalis, HH34358; Strep. faecalis HH 34358, in vitro. How it is done:
as §1

Another assay relates to E. coli 12140. As to the kind of experiment: in vivo mouse protection test. Particulars: Escherichia coli, sc, E. coli 12140, subcutaneous injection. From the text:
(§2) 4200 upon subcutaneous injection.

In the next assay the test system is Kleb. pneumo. 4200. As to the kind of experiment: in vivo mouse protection test. Particulars: sc, Kleb. pneumo. 4200, subcutaneous injection.
Excerpt: as §2

What is called MIC is the least concentration at which growth counts as inhibited. A lower MIC goes with a more susceptible organism. By ED50 is commonly meant the midpoint of the dose-response relation. Low readings indicate an effect at a small dose, high ones a need for a large dose. Take `O=C(O)C1=C(CSc2nnc(CS(=O)(=O)O)o2)CS[C@@H]2[C@H](NC(=O)[C@H](O)c3ccccc3)C(=O)N12` [7-D-Mandelamido-3-(5-sulfomethyl-1,3,4-oxadiazol-2-ylthiomethyl)-3-cephem-4-carboxylic acid]: the MIC with E. coli HH 33779 was 3.1 µg/mL (≈ 5.71 µM); with E. coli SK 12140, 1.6 µg/mL (≈ 2.95 µM); in the assay with Entero aerog. ATCC 13048, 3.1 µg/mL (≈ 5.71 µM); in the assay on Entero. cloacae HH 31254, 1.6 µg/mL (≈ 2.95 µM); against Kleb. pneumo. SK 1200, 0.8 µg/mL (≈ 1.47 µM); in the assay on Kleb. pneumo. SK 4200, 1.6 µg/mL (≈ 2.95 µM). For the same molecule, the MIC in the assay on Proteus morgani 179 was 25 µg/mL (≈ 46.1 µM); against Pseudo. aerug. HH 63, over 200 µg/mL; in the assay on S. aureus HH 127, 3.1 µg/mL (≈ 5.71 µM); in the assay on S. aureus SK 23390, 1.6 µg/mL (≈ 2.95 µM); against S. villaluz SK 70390 it was 200 µg/mL (≈ 369 µM); in the assay with Salmonella ATCC 12176, 1.6 µg/mL (≈ 2.95 µM). The values for the MIC in the assay with Serrata marc. ATCC 13880, against Shigella HH 117 and in the assay on Strep. faecalis HH 34358 were 100 µg/mL (≈ 184 µM), 0.8 µg/mL (≈ 1.47 µM) and 50 µg/mL (≈ 92.2 µM), respectively. Moreover, the ED50 in the assay on E. coli 12140 and in the assay on Kleb. pneumo. 4200 was 1.56 mg/kg throughout.
